Source: US9243025B2, “Compounds and pharmaceutical compositions for the treatment of viral infections” (Idenix Pharmaceuticals, LLC, priority 2011, dated 2016)
Like-named read-outs stand apart in the source and are kept apart here.

Columns and labels:
[1] = Cytotoxicity evaluation in GS4.1 cells (Cell Titer 96 AQueous One Solution Cell Proliferation Assay); format: cell-based; details: human, cellular viability, treated as in replicon assay, read-out: HCV Replicon CC50
Procedure: (§1) Huh-7 cells containing HCV Coni subgenomic replicon (GS4.1 cells), (C. Seeger; Fox Chase University, Philadelphia, Pa., USA), are grown in Dulbecco's Modified Eagle Medium (DMEM) supplemented with 10% fetal bovine serum (FBS), 2 mM L-glutamine, 110 mg/L sodium pyruvate, 1× non-essential amino acids, 100 U/mL penicillin-streptomycin and 0.5 mg/mL G418 (Invitrogen). For dose-response testing, the cells are seeded in 96-well plates at 7.5×10^3 cells/well in a volume of 50 μL and incubated at 37° C./5% CO2. Three hours after plating, 50 μL of ten 2-fold serial dilutions of compounds (highest concentration, 75 μM) are added and cell cultures were incubated at 37° C./5% CO2 in the presence of 0.5% DMSO. Alternatively, compounds are tested at a single concentration of 15 μM. In all cases, Huh-7 cells lacking the HCV replicon served as negative control. The cells are incubated in the presence of compounds for 72 hours after which they were monitored for expression of the NS4A protein by enzyme-linked immunosorbent assay (ELISA). For this, the plates were then fixed for 1 min with 1:1 acetone:methanol, washed twice with phosphate-buffered saline (PBS), 0.1% Tween 20, blocked for 1 hour at room temperature with TNE buffer containing 10% FBS and then incubated for 2 h at 37° C. with the anti-NS4A mouse monoclonal antibody A-236 (ViroGen) diluted in the same buffer. After washing three times with PBS, 0.1% Tween 20, the cells are incubated 1 hour at 37° C. with anti-mouse immunoglobulin G-peroxidase conjugate in TNE, 10% FBS. After washing as described above, the reaction is developed with O-phenylenediamine (Zymed). The reaction is stopped after 30 minutes with […] and the absorbance is read at 492 nm using a Sunrise Tecan spectrophotometer. EC50 values are determined from the % inhibition versus concentration data using a sigmoidal non-linear regression analysis based on four parameters with Tecan Magellan software. When screening at a single concentration, the results are expressed as % inhibition at 15 μM. For cytotoxicity evaluation, GS4.1 cells are treated with compounds as described above and cellular viability was monitored using a Cell Titer 96 AQueous One Solution Cell Proliferation Assay (Promega). CC50 values are determined from the % cytotoxicity versus concentration data with Tecan Magellan software as described above.

[2] = system: Huh-7 cells containing HCV Coni subgenomic replicon (GS4.1 cells); test: HCV replicon assay; format: cell-based; details: read-out: HCV Replicon EC50
Procedure: as §1
Compounds presented in the table below were assayed according to the replicon assay described above.

[3] = Hepatitis C virus, Huh-7, 72 h, GS4.1 cells, 72 hours incubation, NS4A expression by ELISA

## COC(=O)C(CC(C)C)NP(=O)(NC(CC(C)C)C(=O)OC)OC[C@H]1O[C@@H](n2cnc3c(OC)nc(N)nc32)[C@@](C)(O)C1O (stereo in doubt) [Compound 3]
[1]
  CC50 at 72 h: > 75 µM
[2]; [3]
  EC50: 0.1 to 1 µM

## COc1nc(N)nc2c1ncn2[C@@H]1O[C@H](COP(=O)(NC(CC(C)C)C(=O)OC(C)C)NC(CC(C)C)C(=O)OC(C)C)C(O)C1(C)O (stereo in doubt) [Compound 12]
[1]
  CC50 at 72 h: > 75 µM
[2]; [3]
  EC50: 0.1 to 1 µM

## CCOC(=O)C(Cc1ccccc1)NP(=O)(NC(Cc1ccccc1)C(=O)OCC)OC[C@H]1O[C@@H](n2cnc3c(OC)nc(N)nc32)C(C)(O)C1O (stereo in doubt) [Compound 16]
[1]
  CC50 at 72 h: ≤ 75 µM
[2]; [3]
  EC50: < 0.1 µM

## COC(=O)C(CC(C)C)NP(=O)(NC(CC(C)C)C(=O)OC)OC[C@H]1O[C@@H](n2cnc3c(OC)nc(N)nc32)[C@@]2(C)OC(=O)OC12 (some centres unmarked) [Compound 4]
[1]
  CC50 at 72 h: > 75 µM
[2]; [3]
  EC50: < 0.1 µM

## CCOC(=O)C(CC(C)C)NP(=O)(NC(CC(C)C)C(=O)OCC)OC[C@H]1O[C@@H](n2cnc3c(NC4CC4)nc(N)nc32)C(C)(O)C1O (some centres unmarked) [Compound 6]
[1]
  CC50 at 72 h: > 75 µM
[2]; [3]
  EC50: < 0.1 µM

## COC(=O)C(CC(C)C)NP(=O)(NC(CC(C)C)C(=O)OC)OC[C@H]1O[C@@H](n2cnc3c(NC4CC4)nc(N)nc32)C(C)(O)C1O (some centres unmarked) [Compound 8]
[1]
  CC50 at 72 h: > 75 µM
[2]; [3]
  EC50: 0.1 to 1 µM

## COc1nc(N)nc2c1ncn2[C@@H]1O[C@H](COP(=O)(NC(Cc2ccccc2)C(=O)OC(C)C)NC(Cc2ccccc2)C(=O)OC(C)C)C(O)C1(C)O (some centres unmarked) [Compound 13]
[1]
  CC50 at 72 h: ≤ 75 µM
[2]; [3]
  EC50: 0.1 to 1 µM

## C#CC1(F)C(O)[C@@H](COP(=O)(NC(CC(C)C)C(=O)OCC)NC(CC(C)C)C(=O)OCC)O[C@H]1n1cnc2c(=O)[nH]c(N)nc21 (some centres unmarked) [Compound 22]
[1]
  CC50 at 72 h: > 75 µM
[2]; [3]
  EC50: > 10 µM

## C#CC1(F)C(O)[C@@H](COP(=O)(NC(CC(C)C)C(=O)OC)NC(CC(C)C)C(=O)OC)O[C@H]1n1cnc2c(=O)[nH]c(N)nc21 (some centres unmarked) [Compound 23]
[1]
  CC50 at 72 h: > 75 µM
[2]; [3]
  EC50: > 10 µM

## CCOC(=O)[C@@H](NP(=O)(N[C@H](C(=O)OCC)c1ccccc1)OC[C@H]1O[C@@H](n2cnc3c(NC4CC4)nc(N)nc32)C(C)(O)C1O)c1ccccc1 (some centres unmarked) [Compound 30]
[1]
  CC50 at 72 h: > 75 µM
[2]; [3]
  EC50: 1 to 10 µM

## CCOC(=O)[C@H](C)NP(=O)(N[C@@H](C)C(=O)OCC)OC[C@H]1O[C@@H](n2cnc3c(NC4CC4)nc(N)nc32)[C@@](C)(O)C1O (some centres unmarked) [Compound 31]
[1]
  CC50 at 72 h: > 75 µM
[2]; [3]
  EC50: 0.1 to 1 µM

## CCOC(=O)[C@H](Cc1ccccc1)NP(=O)(N[C@@H](Cc1ccccc1)C(=O)OCC)OC[C@H]1O[C@@H](n2cnc3c(NC4CC4)nc(N)nc32)[C@@](C)(O)C1O (some centres unmarked) [Compound 32]
[1]
  CC50 at 72 h: > 75 µM
[2]; [3]
  EC50: < 0.1 µM

## CCCOc1nc(N)nc2c1ncn2[C@@H]1O[C@H](COP(=O)(N[C@@H](CC(C)C)C(=O)OCC)N[C@@H](CC(C)C)C(=O)OCC)C(O)C1(C)O (some centres unmarked) [Compound 33]
[1]
  CC50 at 72 h: ≤ 75 µM
[2]; [3]
  EC50: < 0.1 µM

## CCOC(=O)[C@H](CC(C)C)NP(=O)(N[C@@H](CC(C)C)C(=O)OCC)OC[C@H]1O[C@@H](n2cnc3c(N4CCOCC4)nc(N)nc32)C(C)(O)C1O (some centres unmarked) [Compound 34]
[1]
  CC50 at 72 h: > 75 µM
[2]; [3]
  EC50: 0.1 to 1 µM

## CCOC(=O)[C@H](CC(C)C)NP(=O)(N[C@@H](CC(C)C)C(=O)OCC)OC[C@H]1O[C@@H](n2cnc3c(N(C)C)nc(N)nc32)C(C)(O)C1O (some centres unmarked) [Compound 35]
[1]
  CC50 at 72 h: > 75 µM
[2]; [3]
  EC50: < 0.1 µM

## CCOC(=O)[C@H](CC(C)C)NP(=O)(N[C@@H](CC(C)C)C(=O)OCC)OC[C@H]1O[C@@H](n2cnc3c(N4CCCC4)nc(N)nc32)C(C)(O)C1O (some centres unmarked) [Compound 36]
[1]
  CC50 at 72 h: > 75 µM
[2]; [3]
  EC50: < 0.1 µM

## CCOC(=O)[C@H](CC(C)C)NP(=O)(N[C@@H](CC(C)C)C(=O)OCC)OC[C@H]1O[C@@H](n2cnc3c(=O)[nH]c(N)nc32)C(C)(O)C1O (some centres unmarked) [Compound 37]
[1]
  CC50 at 72 h: > 75 µM
[2]; [3]
  EC50: 1 to 10 µM

## CCOC(=O)[C@H](CC(C)C)NP(=O)(N[C@@H](CC(C)C)C(=O)OCC)OC[C@H]1O[C@@H](n2cnc3c(NC4CCCC4)nc(N)nc32)C(C)(O)C1O (some centres unmarked) [Compound 38]
[1]
  CC50 at 72 h: ≤ 75 µM
[2]; [3]
  EC50: < 0.1 µM

## CCCOC(=O)[C@H](CC(C)C)NP(=O)(N[C@@H](CC(C)C)C(=O)OCCC)OC[C@H]1O[C@@H](n2cnc3c(OC)nc(N)nc32)[C@@](C)(O)C1O (some centres unmarked) [Compound 43]
[1]
  CC50 at 72 h: ≤ 75 µM
[2]; [3]
  EC50: < 0.1 µM

## CCCCOC(=O)[C@H](CC(C)C)NP(=O)(N[C@@H](CC(C)C)C(=O)OCCCC)OC[C@H]1O[C@@H](n2cnc3c(OC)nc(N)nc32)[C@@](C)(O)C1O (some centres unmarked) [Compound 44]
[1]
  CC50 at 72 h: ≤ 75 µM
[2]; [3]
  EC50: < 0.1 µM

## C#CC1(F)C(O)[C@@H](COP(=O)(NCC(=O)OCC)NCC(=O)OCC)O[C@H]1n1cnc2c(=O)[nH]c(N)nc21 (some centres unmarked) [Compound 48]
[1]
  CC50 at 72 h: > 75 µM
[2]; [3]
  EC50: 1 to 10 µM

## CCOC(=O)[C@H](CC(C)C)NP(=O)(N[C@@H](CC(C)C)C(=O)OCC)OC[C@H]1O[C@@H](n2ccc(OC)nc2=O)[C@](C)(O)[C@@H]1O [Compound 55]
[1]
  CC50 at 72 h: > 75 µM
[2]; [3]
  EC50: 0.1 to 1 µM

## COc1ccn([C@@H]2O[C@H](COP(=O)(NCc3ccccc3)OCCSC(=O)C(C)(C)CO)[C@@H](O)[C@@]2(C)O)c(=O)n1 (some centres unmarked) [Compound 56]
[1]
  CC50 at 72 h: > 75 µM
[2]; [3]
  EC50: < 0.1 µM

## COc1nc(N)nc2c1ncn2[C@@H]1O[C@H](COP(=O)(NC(C)C)OCCSC(=O)C(C)(C)CO)C(O)C1(C)O (some centres unmarked) [Compound 57]
[2]; Hepatitis C virus, Huh-7, 72 h
  EC50: 0.1 to 1 µM

## COc1nc(N)nc2c1ncn2[C@@H]1O[C@H](COP(=O)(NCc2ccccc2)OCCSC(=O)C(C)(C)CO)C(O)C1(C)O (some centres unmarked) [Compound 57]
[1]
  CC50 at 72 h: > 75 µM
[2]; Hepatitis C virus, Huh-7, 72 h
  EC50: < 0.1 µM

## CCOC(=O)[C@@H](NP(=O)(N[C@@H](C(=O)OCC)C(C)C)OC[C@H]1O[C@@H](n2cnc3c(OC)nc(N)nc32)C(C)(O)C1O)C(C)C (some centres unmarked) [Compound 58]
[1]
  CC50 at 72 h: > 75 µM
[2]; [3]
  EC50: < 0.1 µM

## CCOC(=O)[C@@H](NP(=O)(N[C@@H](C(=O)OCC)c1ccccc1)OC[C@H]1O[C@@H](n2cnc3c(OC)nc(N)nc32)C(C)(O)C1O)c1ccccc1 (some centres unmarked) [Compound 59]
[1]
  CC50 at 72 h: > 75 µM
[2]; [3]
  EC50: 1 to 10 µM

## COC(=O)C1CCCN1P(=O)(OC[C@H]1O[C@@H](n2cnc3c(OC)nc(N)nc32)C(C)(O)C1O)N1CCCC1C(=O)OC (some centres unmarked) [Compound 60]
[1]
  CC50 at 72 h: > 75 µM
[2]; [3]
  EC50: 0.1 to 1 µM

## CCOC(=O)[C@@H](CC(C)C)NP(=O)(N[C@H](CC(C)C)C(=O)OCC)OC[C@H]1O[C@@H](n2cnc3c(OC)nc(N)nc32)C(C)(O)C1O (some centres unmarked) [Compound 61]
[1]
  CC50 at 72 h: > 75 µM
[2]; GS4.1 cells, 72 hours incubation, NS4A expression by ELISA
  EC50: 1 to 10 µM

## CCOC(=O)[C@H](CC(C)C)NP(=O)(N[C@H](CC(C)C)C(=O)OCC)OC[C@H]1O[C@@H](n2cnc3c(OC(C)C)nc(N)nc32)C(C)(O)C1O (some centres unmarked) [Compound 62]
[1]
  CC50 at 72 h: > 75 µM
[2]; [3]
  EC50: < 0.1 µM

## CCOC(=O)[C@H](CC)NP(=O)(N[C@H](CC)C(=O)OCC)OC[C@H]1O[C@@H](n2cnc3c(OC)nc(N)nc32)C(C)(O)C1O (some centres unmarked) [Compound 63]
[1]
  CC50 at 72 h: > 75 µM
[2]; [3]
  EC50: 0.1 to 1 µM

## CCOC(=O)[C@H](CC(C)C)NP(=O)(N[C@H](CC(C)C)C(=O)OCC)OC[C@H]1O[C@@H](n2cnc3c(OCC)nc(N)nc32)C(C)(O)C1O (some centres unmarked) [Compound 64]
[1]
  CC50 at 72 h: > 75 µM
[2]; [3]
  EC50: < 0.1 µM

## CCOC(=O)[C@H](CC(C)C)NP(=O)(N[C@@H](CC(C)C)C(=O)OCC)OC[C@H]1O[C@@H](n2cnc3c(OC)nc(N)nc32)C(C)(O)C1O (some centres unmarked) [Compound 65]
[1]
  CC50 at 72 h: > 75 µM
[2]; [3]
  EC50: < 0.1 µM
